# Laboratory results from patent publication US6333311A, “Useful properties of human lactoferrin and variants thereof” (Pharming, priority 1998, dated 2001).
# Tests used:
# [1] = molecular target: human transferrin (hTF) (Homo sapiens, UniProt P02787); assay: Competitive inhibition of hLF binding to solid-phase lipid A, competitor hTF; settings: hTF as competitor of 12.5 nM biotinylated hLF binding to immobilized lipid A
# [2] = molecular target: T1, human lactoferrin, iron-saturated hLF (Homo sapiens, UniProt P02788); assay: Competitive inhibition of hLF binding to solid-phase lipid A, competitor iron-saturated hLF; settings: concentration of unlabelled iron-saturated hLF giving 50% inhibition of the response of 12.5 nM biotinylated hLF on immobilized lipid A; mean ± SD of at least 4 experiments
# T1 construct: Human LF was purified from fresh human milk by cation-exchange chromatography; from tissue; host or cells: fresh human milk
# [3] = molecular target: T2, human lactoferrin, natural hLF (purified from human milk, 3.5% saturated with iron) (Homo sapiens, UniProt P02788); assay: Competitive inhibition of hLF binding to solid-phase lipid A, competitor natural hLF; settings: concentration of unlabelled natural hLF giving 50% inhibition of the response of 12.5 nM biotinylated hLF on immobilized lipid A; mean ± SD of at least 4 experiments
# T2 construct: Human LF was purified from fresh human milk by cation-exchange chromatography; from tissue; host or cells: fresh human milk
# T2 sequence (P02788 with tags, fused parts or gaps limits assumed): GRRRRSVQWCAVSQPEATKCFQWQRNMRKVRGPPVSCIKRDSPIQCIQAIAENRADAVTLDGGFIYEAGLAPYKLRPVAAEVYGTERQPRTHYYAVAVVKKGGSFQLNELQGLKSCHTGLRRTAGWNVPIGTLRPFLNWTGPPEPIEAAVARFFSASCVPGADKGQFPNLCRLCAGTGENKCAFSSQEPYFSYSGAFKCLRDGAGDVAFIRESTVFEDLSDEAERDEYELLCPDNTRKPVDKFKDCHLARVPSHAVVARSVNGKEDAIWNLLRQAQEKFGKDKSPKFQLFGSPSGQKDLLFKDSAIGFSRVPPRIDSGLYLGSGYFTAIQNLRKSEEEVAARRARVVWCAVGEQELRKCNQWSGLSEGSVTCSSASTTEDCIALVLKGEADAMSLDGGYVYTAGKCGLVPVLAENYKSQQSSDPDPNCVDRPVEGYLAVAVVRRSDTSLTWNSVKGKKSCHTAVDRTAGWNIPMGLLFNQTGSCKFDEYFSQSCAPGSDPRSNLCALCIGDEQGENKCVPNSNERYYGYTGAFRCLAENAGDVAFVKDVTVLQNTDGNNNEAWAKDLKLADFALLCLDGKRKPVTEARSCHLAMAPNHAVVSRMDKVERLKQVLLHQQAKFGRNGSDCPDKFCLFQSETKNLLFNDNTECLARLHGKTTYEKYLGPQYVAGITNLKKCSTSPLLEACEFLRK
# human transferrin (hTF), sequence (P02787 20-698): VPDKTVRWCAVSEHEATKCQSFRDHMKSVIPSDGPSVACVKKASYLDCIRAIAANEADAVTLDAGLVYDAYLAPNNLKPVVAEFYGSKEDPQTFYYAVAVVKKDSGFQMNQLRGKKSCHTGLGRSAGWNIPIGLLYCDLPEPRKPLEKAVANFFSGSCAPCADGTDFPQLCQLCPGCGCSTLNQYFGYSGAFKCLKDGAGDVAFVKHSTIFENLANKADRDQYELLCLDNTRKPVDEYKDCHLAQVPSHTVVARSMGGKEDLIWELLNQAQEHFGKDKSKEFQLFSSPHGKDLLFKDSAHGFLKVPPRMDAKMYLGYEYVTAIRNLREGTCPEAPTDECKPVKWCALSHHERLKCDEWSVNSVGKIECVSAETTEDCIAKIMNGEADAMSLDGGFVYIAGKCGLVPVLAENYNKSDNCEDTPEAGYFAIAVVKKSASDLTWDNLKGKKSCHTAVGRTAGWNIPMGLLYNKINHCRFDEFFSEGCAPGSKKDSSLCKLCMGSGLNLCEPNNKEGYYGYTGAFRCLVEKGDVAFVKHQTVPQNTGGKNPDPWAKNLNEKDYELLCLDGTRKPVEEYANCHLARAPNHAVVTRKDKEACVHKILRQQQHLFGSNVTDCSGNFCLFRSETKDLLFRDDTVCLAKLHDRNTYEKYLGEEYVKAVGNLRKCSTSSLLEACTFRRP
# T1 sequence (P02788 with tags, fused parts or gaps limits assumed): as the sequence (P02788 with tags, fused parts or gaps limits assumed) above
substance,measurement,setting,value
Lipid A,"IC50 Competitor, hTF",[1],no competition
same,IC50,[2],1.3 ± 0.4 nM
same,IC50,[3],1.7 ± 0.5 nM
